The record followed here is patent US9415047B2, “Use of benzo five-membered nitrogen heterocyclic piperazine or piperidine derivatives” (Liaoning Emmy Biological Pharmaceutical Co., Ltd., priority 2012, dated 2016).

Experiment [1] concerns high kalium concentration constricted rabbit aorta. Description: Relaxing effects on vascular smooth muscle constricted by high kalium concentration in vitro. As to conditions: Oryctolagus cuniculus, relaxation of rabbit aorta constricted by high kalium solution (K+ 60 mmol/L); mean±SEM, n=5. The protocol:
Adrenaline hydrochloride (AD) (10^−5 mol/L) was added into a bath tube to induce constriction, when maximal constriction was achieved, the sample was completely flushed, K-H solution was changed for every 20 min. Contents in the tube was balanced for 60 min, when baseline recovered to be stable, K-H solution in the bath tube was replaced with high kalium concentration solution to induce constriction. When the later maximal constriction response was basically consistent with the former one, the prepared compound solutions were subsequently added, including compound II-1 to II-60 solutions (1×10^−8-1×10^−3 mol/L), compound II-84 to II-123 solutions (1×10^−10-1×10^−2 mol/L) and compound II-124 to II-157 solutions (1×10^−10-1×10^−3 mol/L), to record the waveforms. Relaxing percentage of the compound was used as Y axis, maximal relaxation response was 100%, negative logarithm of different concentration was used as X axis, to draw dose effect curve (expressed in mean±SEM ( ? ), n=5). Compounds II-2 and II-3 had the most obvious relaxing effects (FIG. 2 and FIG. 9).

For experiment [2], the system named is AD constricted rabbit aorta. Description: Relaxing effects on vascular smooth muscle constricted by adrenaline hydrochloride (AD) in vitro. Particulars: Oryctolagus cuniculus; relaxation of rabbit aorta constricted by adrenaline (10^−5 mol/L); mean±SEM, n=5. On the procedure: Adrenaline hydrochloride (AD) (10^−5 mol/L) was added into a bath tube to induce constriction, when maximal constriction was achieved, the sample was completely flushed, K-H solution was changed for every 20 min. Contents in the tube was balanced for 60 min, when baseline recovered to be stable, the […] was added at the same concentration to induce constriction. When the later maximal constriction response was basically consistent with the former one, the prepared compound solutions were subsequently added, including compound II-1 to II-60 solutions (1×10^−8-1×10^−3 mol/L), compound II-84 to II-123 solutions (1×10^−10-1×10^−2 mol/L) and compound II-124 to II-157 solutions (1×10^−10˜1×10^−3 mol/L), to record the waveforms. Relaxing percentage of the compound was used as Y axis, maximal relaxation response was 100%, negative logarithm of different concentration was used as X axis, to draw dose effect curve (expressed in mean±SEM ( ? ), n=5). Compounds II-2 and II-3 had the most obvious relaxing effects (FIG. 1 and FIG. 8).

Regarding `Clc1cccc(N2CCN(CCCCn3cnc4ccccc43)CC2)c1` [II-1, 1-(4-(4-(3-chlorophenyl)piperazine-1-yl)butyl)-1H-benzimidazole], the EC50 (commonly the concentration at which the effect is half-maximal) in experiment [1] is 8.91 µM; in experiment [2], 9.33 µM.

Consider `Clc1cccc(N2CCN(CCCCn3cnc4ccccc43)CC2)c1Cl` [II-3, 1-(4-(4-(2,3-dichlorophenyl)piperazine-1-yl)butyl)-1H-benzimidazole], for which the results for the EC50 in experiment [1] and in experiment [2] were 3.24 µM and 0.977 µM, respectively.

Turning to `COc1ccccc1N1CCN(CCCCn2cnc3ccccc32)CC1` [II-4, 1-(4-(4-(2-methoxyphenyl)piperazine-1-yl)butyl)-1H-benzimidazole], the EC50 in experiment [1] was 16.2 µM; in experiment [2], 11 µM.

Regarding `Cc1nc2ccccc2n1CCCCN1CCN(c2cccc(C(F)(F)F)c2)CC1` [II-5, 2-methyl-1-(4-(4-(3-trifluoromethylphenyl)piperazine-1-yl)butyl)-1H-benzimidazole], the results for the EC50 in experiment [1] and in experiment [2] were 29.5 µM and 16.6 µM, respectively.

For the compound `Fc1ccc2ncn(CCCCN3CCN(c4cccc(C(F)(F)F)c4)CC3)c2c1` [II-6, 6-fluoro-1-(4-(4-(3-trifluoromethylphenyl)piperazine-1-yl)butyl)-1H-benzimidazole], the results for the EC50 in experiment [1] and in experiment [2] were 38.9 µM and 23.4 µM, respectively.

Regarding `c1ccc(N2CCN(CCCn3cnc4ccccc43)CC2)cc1` [II-7, 1-(3-(4-phenylpiperazine-1-yl)propyl)-1H-benzimidazole], the concentration giving a half-maximal response (EC50) is 162 µM in experiment [1] and 51.3 µM in experiment [2].

Turning to `Fc1cccc(N2CCN(CCCn3cnc4ccccc43)CC2)c1` [II-8, 1-(3-(4-(3-fluorophenyl)piperazine-1-yl)propyl)-1H-benzimidazole], the EC50 in experiment [1] was 38.9 µM; in experiment [2] it was 19.5 µM.

Turning to `Cc1nc2ccccc2n1CCCN1CCN(c2cccc(F)c2)CC1` [II-9, 2-methyl-1-(3-(4-(3-fluorophenyl)piperazine-1-yl)propyl)-1H-benzimidazole], the EC50 in experiment [1] was 52.5 µM; in experiment [2], 42.7 µM.

`N#Cc1cccc(N2CCN(CCCCn3cnc4ccccc43)CC2)c1` [II-10, 1-(4-(4-(3-cyanophenyl)piperazine-1-yl)butyl)-1H-benzimidazole]: the EC50 in experiment [1] was 110 µM; in experiment [2], 55 µM.

As for `Cc1ccc(N2CCN(CCCCn3cnc4ccccc43)CC2)cc1` [II-11, 1-(4-(4-(4-methylphenyl)piperazine-1-yl)butyl)-1H-benzimidazole], the EC50 in experiment [1] is 141 µM; in experiment [2] it was 89.1 µM.

In the case of `c1coc(N2CCN(CCCCn3cnc4ccccc43)CC2)c1` [II-12, 1-(4-(4-(2-furyl)piperazine-1-yl)butyl)-1H-benzimidazole], the EC50 was 70.8 µM in experiment [1] and 44.7 µM in experiment [2].

On to `c1ccc2c(c1)ncn2CCCCN1CCN(c2ccncc2)CC1` [II-13, 1-(4-(4-(4-pyridyl)piperazine-1-yl)butyl)-1H-benzimidazole], for which the EC50 was 30.2 µM in experiment [1] and 38.9 µM in experiment [2].

`c1cnc(N2CCN(CCCCn3cnc4ccccc43)CC2)nc1` [II-14, 1-(4-(4-(2-pyrimidinyl)piperazine-1-yl)butyl)-1H-benzimidazole]: the EC50 was 89.1 µM in experiment [1] and 60.3 µM in experiment [2].

Regarding `c1ccc2c(c1)ncn2CCCCN1CCN(C2CCCCC2)CC1` [II-15, 1-(4-(4-(1-cyclohexyl)piperazine-1-yl)butyl)-1H-benzimidazole], the EC50 in experiment [1] was 30.2 µM; in experiment [2], 33.9 µM.

Take `c1ccc2c(N3CCN(CCCCn4cnc5ccccc54)CC3)cccc2c1` [II-16, 1-(4-(4-(1-naphthyl)piperazine-1-yl)butyl)-1H-benzimidazole]: the values for the EC50 in experiment [1] and in experiment [2] were 64.6 µM and 51.3 µM, respectively.

In the case of `c1ccc2nc(N3CCN(CCCCn4cnc5ccccc54)CC3)cnc2c1` [II-17, 1-(4-(4-(2-quinoxalinyl)piperazine-1-yl)butyl)-1H-benzimidazole], the EC50 was 49 µM in experiment [1] and 29.5 µM in experiment [2].

For the compound `Fc1ccc2c(N3CCN(CCCCn4cnc5ccccc54)CC3)noc2c1` [II-18, 1-(4-(4-(3-(6-fluorobenzisoxazolyl))piperazine-1-yl)butyl)-1H-benzimidazole], the EC50 is 18.2 µM in experiment [1] and 13.8 µM in experiment [2].

Take `Fc1ccc2c(N3CCN(CCCCn4cnc5ccccc54)CC3)nsc2c1` [II-19, 1-(4-(4-(3-(6-fluorobenzisothiazolyl))piperazine-1-yl)butyl)-1H-benzimidazole]: the figures for the EC50 in experiment [1] and in experiment [2] were 87.1 µM and 66.1 µM, respectively.

Regarding `Fc1ccc2c(N3CCN(CCCCn4cnc5ccccc54)CC3)coc2c1` [II-21, 1-(4-(4-(3-(6-fluorobenzofuranyl))piperazine-1-yl)butyl)-1H-benzimidazole], the EC50 is 178 µM in experiment [1] and 89.1 µM in experiment [2].

For `Fc1ccc2c(N3CCN(CCCOn4cnc5ccccc54)CC3)noc2c1` [II-22, 1-(3-(4-(3-(6-fluorobenzisoxazolyl))piperazine-1-yl)propoxyl)-1H-benzimidazole], the EC50 in experiment [1] was 22.9 µM; in experiment [2], 28.2 µM.

As for `FC(F)(F)c1cccc(N2CCN(CCCOn3cnc4ccccc43)CC2)c1` [II-23, 1-(4-(4-(3-trifluoromethylphenyl)piperazine-1-yl)propoxyl)-1H-benzimidazole], the EC50 was 38 µM in experiment [1] and 19.1 µM in experiment [2].

Regarding `Clc1cccc(N2CCN(CCCOn3cnc4ccccc43)CC2)c1` [II-24, 1-(4-(4-(3-chlorphenyl)piperazine-1-yl)propoxyl)-1H-benzimidazole], the EC50 in experiment [1] and in experiment [2] was 30.2 µM throughout.

With `FC(F)(F)c1cccc(N2CCN(CCCCn3cnc4ccc(Cl)cc43)CC2)c1` [II-25, 6-chloro-1-(4-(4-(3-trifluoromethylphenyl)piperazine-1-yl)butyl)-1H-benzimidazole], the EC50 is 29.5 µM in experiment [1] and 16.2 µM in experiment [2].

As for `N#Cc1ccc2ncn(CCCCN3CCN(c4cccc(C(F)(F)F)c4)CC3)c2c1` [II-26, 6-cyano-1-(4-(4-(3-trifluoromethylphenyl)piperazine-1-yl)butyl)-1H-benzimidazole], the results for the EC50 in experiment [1] and in experiment [2] were 102 µM and 64.6 µM, respectively.

For the compound `COC(=O)c1ccc2ncn(CCCCN3CCN(c4cccc(C(F)(F)F)c4)CC3)c2c1` [II-27, 6-methoxycarbonyl-1-(4-(4-(3-trifluoromethylphenyl)piperazine-1-yl)butyl)-1H-benzimidazole], the EC50 was 87.1 µM in experiment [1] and 49 µM in experiment [2].

In the case of `FC(F)(F)c1cccc(N2CCN(CCCCCn3c(Cl)nc4ccccc43)CC2)c1` [II-28, 2-chloro-1-(5-(4-(3-trifluoromethylphenyl)piperazine-1-yl)pentyl)-1H-benzimidazole], the EC50 is 141 µM in experiment [1] and 102 µM in experiment [2].

For the compound `Clc1cccc(N2CCN(CCCCn3nnc4ccccc43)CC2)c1` [II-29, 1-(4-(4-(3-chlorophenyl)piperazine-1-yl)butyl)-1H-benzotriazole], the EC50 is 2.29 µM in experiment [1] and 0.977 µM in experiment [2].

As to `Fc1cccc(N2CCN(CCCCn3nnc4ccccc43)CC2)c1` [II-30, 1-(4-(4-(3-fluorophenyl)piperazine-1-yl)butyl)-1H-benzotriazole], the values for the EC50 in experiment [1] and in experiment [2] were 7.41 µM and 3.02 µM, respectively.
